Results reported in patent US7892767B2, “Phosphospecific chemokine receptor antibodies” (Washington University in St. Louis, priority 2005, dated 2011).

Tests used:
Nf1+/+ astrocytes [1] = assay: Cell number by trypan blue exclusion, Nf1+/+ astrocytes; assay type: cell-based, mouse; conditions: CXCL12 0.1 ug/ml (≈10 nM), 24 hours, vs untreated controls
Description: Culture and treatment of primary astrocytes. Primary cultures of astrocytes were prepared from post-natal day two Nf1^flox/flox mice as previously described (134) and in accordance with established Animal Studies Protocols at Washington University School of Medicine. Cultures were infected with adenovirus containing either Cre recombinase (Nf1−/−) or LacZ (Nf1+/+). Primary cultures of astrocytes were grown under standard adherent conditions in serum free media (DMEM/F12 or Neurobasal (Gibco-BRL)) in the presence or absence of 0.1 μg/ml CXCL12 (Peprotech) and 10 μM Forskolin for 24 hours, as indicated. Cell number was determined after 24 hours by trypan blue exclusion and the growth effects of CXCL12 were derived as follows: ((cell number in the presence of CXCL12—cell number cell in the absence of CXCL12)/cell number in the absence of CXCL12)×100.)
To determine the biological significance of CXCR4 activation to NF1 glioma biology, we next sought to evaluate the regulation of CXCL12 growth effects by neurofibromin in astrocytes. While the true cell of origin of astrocytomas remains unknown, we utilized primary cultures of cortical astrocytes as a model of a normal counterpart to astrocytoma cells. Astrocytes were derived from Nf1^flox/flox mice and rendered Nf1+/+ or Nf1−/− by infection with adenovirus encoding LacZ or Cre recombinase, respectively.

Nf1+/+ astrocytes [2] = assay: Cell cycle analysis by flow cytometry, Nf1+/+ astrocytes; assay type: cell-based, mouse; conditions: CXCL12 0.1 μg/ml
Description: Cell Cycle Analysis. Ethanol fixed cells were washed in PBS and resuspended in PI staining solution containing 0.1% Triton-X-100, 0.2 mg/ml RNase A, and 20 ug/ml Propidium Iodide in PBS. The cells were incubated for 15 minutes at 37° C., in the dark. Flow Cytometry was performed on a FACSCalibur system (Becton Dickinson, San Jose, Calif.) Data were analyzed using CellQuest software (Becton Dickinson, San Jose, Calif.). Aggregates and debris were excluded from the analysis.
The basis for the in vitro growth effects of CXCL12 was further evaluated by cell cycle analysis of asynchronously growing cultures of Nf1+/+ and Nf1−/− astrocytes in the presence and absence of CXCL12. In agreement with measurements of cell number, 15% more Nf1−/− astrocytes were in the S+G2M fraction of the cell cycle compared to Nf1+/+ astrocytes (P<0.005, data not shown). This decrease in Nf1+/+ cell number in response to CXCL12 was the result of both a 6% decrease in proliferation (S+G2-M) and a 38+/−8% increase in apoptosis (sub-G0). The increase in Nf1−/− cell number was the result of a 27+/−12% decline in apoptosis alone (FIG. 9C).

CXCR4 = CXCR4 (Homo sapiens, UniProt P61073); assay: Stimulated CXCR4 phosphorylation in LN428 GBM cells (western blot); assay type: cell-based; design: lysates from the glioblastoma cell line LN428, which is known to express high levels of CXCR4; endogenous in cells; host or cells: LN428 GBM cell line
Chain of CXCR4 (P61073 whole entry): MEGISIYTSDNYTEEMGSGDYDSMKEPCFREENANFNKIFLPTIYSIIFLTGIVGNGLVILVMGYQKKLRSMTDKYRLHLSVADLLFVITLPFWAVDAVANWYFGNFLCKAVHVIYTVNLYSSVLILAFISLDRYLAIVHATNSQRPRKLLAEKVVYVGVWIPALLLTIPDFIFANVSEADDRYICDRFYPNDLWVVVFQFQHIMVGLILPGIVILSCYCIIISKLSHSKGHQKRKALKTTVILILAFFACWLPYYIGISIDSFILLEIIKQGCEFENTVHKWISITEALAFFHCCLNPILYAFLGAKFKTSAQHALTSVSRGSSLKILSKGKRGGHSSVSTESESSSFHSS
Description: Cell Culture, transfections and stimulation of CXCR4 phosphorylation. The U87 glioblastoma multiforme (GBM, grade IV) cell line was obtained from the American Type Culture Collection. The LN428 GBM cell line was a kind gift of Dr Erwin van Meir (Winship Cancer Center, Emory University, Atlanta, Ga.). U87 cells were grown in minimum essential a media supplemented with 10% fetal bovine serum ((FBS), Biomedia, Foster City, Calif.). LN428 cells were grown in DMEM (Fisher, Pittsburgh, Pa.) supplemented with 10% horse serum (Sigma). All cells were grown in the presence of penicillin-streptomycin. The coding sequence for human CXCR4 was obtained by high fidelity RT-PCR (Superscript III Platinum, Invitrogen), and cloned into the expression vector pMSCVneo (Clontech, Palo Alto, Calif.). Transfections were performed with 0.3 μg of plasmid DNA in 20 μl Lipofectamine (Invitrogen)/35 mm^2 tissue culture dish for 9 hours according to the manufacturer's instructions. Cells recovered in Optimem supplemented with 10% FBS. Transfected and non-transfected cells were placed in serum free media for 24 hours prior to treatment with agents to stimulate CXCR4 phosphorylation. Treatment was usually for 0 or 10 minutes with 1 μg/ml CXCL12 (Peprotech, Rocky Hill N.J.), 4 μM 4-Phorbol 12-myristate 13-acetate (PMA) or 10 nM EGF. In some experiments, CXCL12 was washed away and cells were incubated for an additional 20 minutes in serum free media alone.
Western Blot Analysis. Whole-cell extracts were obtained by lysing cells with lysis buffer (20 mM Tris pH 7.4, 137 mM NaCl, 10% Glycerol and 1% Triton X-100) supplemented with phosphatase inhibitor cocktail set II (Calbiochem, La Jolla, Calif.) and protease inhibitors PMSF (1 mM), leupeptin (0.005 mg/ml) and aprotonin (0.005 mg/ml). The proteins (50-75 μg) were resolved with 10% Bis-Tris gels (Invitrogen) and transferred onto the nitrocellulose membrane Hybond ECL (Amersham, Piscataway, N.J.) according to standard protocols. Polyclonal anti-CXCR4 antibody was used at a 1:500 dilution and P338-CXCR4 and P339-CXCR4 directed antibodies were used at 1:100 dilutions overnight at 4° C. This was followed by incubation with horseradish peroxidase-conjugated secondary antibody (1:15,000; Bio-Rad). Peroxide activity was detected using the enhanced chemiluminescence Supersignal West Dura system (Pierce, Rockford, Ill.). Mouse anti-actin antibody at a concentration of 1:1500 was used as a loading control. Peptide competitions and lambda phosphatase treatment were performed as described above.
The utility of these antibodies for evaluating the relationship between ligand binding and CXCR4 function is dependent upon their ability to distinguish a ligand activated form of the receptor. Serum starvation increased CXCL12 responsiveness (data not shown), and for all of these experiments LN428 GBM cells were serum starved for 24 hours prior to CXCL12 treatment. Serum starved LN428 cells were treated with 1 μg/ml CXCL12 for 0 or 10 minutes and the abundance of phospho-CXCR4 was determined by western blot and immuno-localization in fixed cells. […] A similar CXCL12-induced increase in P339-CXCR4 (FIG. 3B), but not P338-CXCR4 (data not shown) immunoreactivity was seen by immunofluorescent analysis of paraformaldehyde fixed cells. After 10 minutes of exposure to CXCL12, P339-CXCR4 can be seen localized to the surface of LN428 cells (FIG. 3B). CXCL12 was then washed away and cells were incubated in its absence for an additional 20 minutes. Surface labeling declined as a function of time and P339-CXCR4 was seen accumulating intracellularly.
Whether this is the only kinase that can phosphorylate these residues is unclear. The observation that protein kinase C (PKC) stimulated CXCR4 internalization also depends upon phosphorylation of this region of the molecule raises the question of whether these sites might also be PKC phosphorylation sites (17, 19, 27, 28). […]

[3] = 1 μg/ml CXCL12, 4 μM PMA or 10 nM EGF

Substance: CXCL12: chemokine ligand of CXCR4 (Peprotech)
- decrease in cell number (Nf1+/+ astrocytes [1]): 10+/−5%
- decrease in proliferation (S+G2-M) (Nf1+/+ astrocytes [2]): 6%
- increase in apoptosis (sub-G0) (Nf1+/+ astrocytes [2]): 38+/−8%
- P338 phosphorylation stimulated (CXCR4; [3]): not
- P339 phosphorylation (CXCR4; [3]): stimulated
- P338-CXCR4 levels after treatment (CXCR4; 1 μg/ml CXCL12, 10 minutes, serum starved LN428 cells): unaffected
